According to patent US9526713B2, “Use of dencichine in preparation of drug for treating thrombocytopenia” (KUNMING SHENGHUO PHARMACEUTICAL (GROUP) CO., LTD., priority 2013, dated 2016):
Where two headings read alike, the source gives them in different places.

Columns and labels:
[1] = tested on: rabbits; assay: Influence of Dencichine for injection on the platelet count of rabbits (single-dose injection); assay type: in vivo, rabbit
[2] = tested on: rats suffering thrombopenia induced by carboplatin; assay: Platelet count of rats suffering thrombopenia induced by multiple injections of carboplatin; assay type: in vivo, Wistar rats; conditions: for increase of platelet count compared with the model group: first injection of carboplatin for 10 days
Method: 81 rats are prepared and randomly divided into eight groups: • blank control group, • high-dose group A (4 mg/kg, intraperitoneal injection, non modeling), • model group (40 mg/kg, tail vein injection), • interleukin-11 group (260 μg/kg, subcutaneous injection), • high dose group B (4 mg/kg, intraperitoneal injection, modeling), • high dose group (4 mg/kg, intraperitoneal injection), • middle dose group (1 mg/kg, intraperitoneal injection), and • low dose group (0.25 mg/kg, intraperitoneal injection),
wherein, the Model group has 11 rats, and the other groups has 10 rats respectively. Before the experiment, the animals are asked to adapt the environment for 2 days, and then blood is taken from their tails for detecting hematological index.
After administration for 10 days, blood is taken from tails of rats from blank control group, high-dose group A, and positive drug group respectively for detecting hematological index.
Thereafter, all animals, except for those of blank group and high-dose group A, are individually injected with carboplatin (40 mg/kg) for modeling, and followed by successive administration for 15 days. During these 15 days, the rats of high-dose group A and high dose group B are stopped from administration, and taken blood from the tail on 5th day, 10th day and 15th day after the modeling respectively for detecting hematological indices. After 15th day of modeling, carboplatin (40 mg/kg) is injected again for a second modeling, and all the groups take successive administration according to the foregoing method, once a day for successive 10 days. Before each hematological indices detection, animals are weighed respectively. Taking the tails' blood of rats on 5th day after the second injection of carboplatin for detecting hematological indices, and taking the tails' blood of rats on 10th day after the second injection of carboplatin for detecting the indices of hematology, reticulocytes and coagulation; and weighing animals and killing them; and weighing liver, thymus, spleen and adrenal gland taken from the dead rats, and calculating out viscera indices; further taking out marrow for doing pathological examination.

[3] = tested on: ITP model mice; assay type: in vivo, BALB/C mice; conditions: 14 days
Description: (§1) Health BALB/C mice (body weight 18˜22 g) are randomly divided into six groups with 12 mice for each group:
Blank group, Model group, Prednisone Acetate Group, Dencichine (high dose, middle dose, and low dose) groups.
Modeling method: blood was taken from orbital vein of BALB/C Mice, followed by EDTA-Na2 Anticoagulation, and then platelets are separated and washed. The prepared platelet suspension solution was mixed uniformly with equal amount of complete Freund's adjuvant and incomplete Freund's adjuvant respectively. In the first week, antigen containing complete Freund's adjuvant is subcutaneously injected into hind paw, back and groin of the guinea pig. Injections are done for 4 times in total, with 5 spots for each injection and 100 μl for each spot. In the 6th week, non-anticoagulated whole blood was taken from the guinea pigs, and was centrifuged for 10 min under 3000 r/min to produce a supernate, which is the anti-mouse platelet serum (GP-APS) of the guinea pigs. The supernate was placed in a water bath (56° C.) for 30 min for complement inactivation, and then the inactivated supernate was diluted with normal saline, followed by test of antibody titers by agar diffusion method, and finally was stored in a refrigerator at −20° C. for later use.
(§2) Except the normal group, the mice of the remain five groups are injected with anti-mouse platelet serum (APS) of the guinea pig with a dose of 100 μl/20 g body weight, via intraperitoneal injection, on the 1st, 3rd, 5th, 7th, 9th, 11th and 13th day of the experiment.
(§3) The mice of each group are given intragastric administration from the first day. […] The mice of the prednisone acetate group are given intragastric administration of suspension of prednisone acetate at 5 mg/(kg·d). The mice of other groups are given intragastric administration of same volumetric of normal saline at 0.2 ml/20 g body weight. Intragastric administration for once each day, and continuous administration for 14 days.
Observation of the Subcutaneous Purpura:
Class I, minor bleeding are found at injection sites, and hemorrhagic spots are interspersed at other sites;
Class II, overt bleeding are found at injection sites, and ecchymosis and petechiae are found at other sites;

[4] = assay type: in vivo, BALB/C mice
Method: as §1, §2, §3
The weights of mice of each group are respectively measured before modeling, on 7th test day, and on 14th test day.

[5] = tested on: thrombocyte aggregation; assay: Thrombocyte aggregation rate of rats injected with carboplatin; assay type: in vivo, rat
Description: So far, it has been reported that a little dencichine can be used as hemostatic drug in prior art, as disclosed in the patent application with publication No. CN1292376A that administrating a little dencichine can achieve hemostasis. However, it has never been reported that dencichine is able to treat Thrombocytopenia.

[6] = high dose group (6 mg/kg per Table 8) intragastric
[7] = low dose group (1.5 mg/kg per Table 8) intragastric
[8] = middle dose group (3 mg/kg) intragastric

N[C@@H](CNC(=O)C(=O)O)C(=O)O [Dencichine, β-N-oxalyl-L-α, β-diaminopropionic acid]
PLT ([1]; 0.04 mg/kg, 0 min): 523.3 ± 78.5 ×10^9/L
PLT ([1]; 0.04 mg/kg, 30 min): 451.0 ± 144.5 ×10^9/L
PLT ([1]; 0.04 mg/kg, 60 min): 504.0 ± 87.8 ×10^9/L
PLT ([1]; 0.20 mg/kg, 0 min): 574.0 ± 64.3 ×10^9/L
PLT ([1]; 0.20 mg/kg, 30 min): 502.3 ± 60.8 ×10^9/L
PLT ([1]; 0.20 mg/kg, 60 min): 518.2 ± 128.5 ×10^9/L
PLT ([1]; 1.00 mg/kg, 0 min): 491.2 ± 163.1 ×10^9/L
PLT ([1]; 1.00 mg/kg, 30 min): 526.5 ± 143.8 ×10^9/L
PLT ([1]; 1.00 mg/kg, 60 min): 541.0 ± 121.6 ×10^9/L
change on the platelet count of rabbits ([1]; single-dose injection, various doses): no obvious change
platelet count ([2]; high dose group A, 4 mg/kg i.p., non modeling, 5th day after first injection of carboplatin): 1113.8 ± 356.97 ×10^9/L
platelet count ([2]; high dose group A, 4 mg/kg i.p., non modeling, 5th day after second injection of carboplatin): 1163.3 ± 233.2 ×10^9/L
platelet count ([2]; high dose group A, 4 mg/kg i.p., non modeling, 10th day after first injection of carboplatin): 638.5 ± 207.9 ×10^9/L
platelet count ([2]; high dose group A, 4 mg/kg i.p., non modeling, 10th day after second injection of carboplatin): 873 ± 147.2 ×10^9/L
platelet count ([2]; high dose group A, 4 mg/kg i.p., non modeling, 15th day after first injection of carboplatin): 799.5 ± 349.8 ×10^9/L
platelet count ([2]; high dose group A, 4 mg/kg i.p., non modeling, before experiment): 625.5 ± 109.3 ×10^9/L
platelet count ([2]; high dose group A, 4 mg/kg i.p., non modeling, prophylactic administration for 10 days): 586.9 ± 139.67 ×10^9/L
platelet count ([2]; high dose group B, 4 mg/kg i.p., prophylactic, modeling, 5th day after first injection of carboplatin): 392.7 ± 116.9 ×10^9/L
platelet count ([2]; high dose group B, 4 mg/kg i.p., prophylactic, modeling, 5th day after second injection of carboplatin): 682.1 ± 266.4 ×10^9/L
platelet count ([2]; high dose group B, 4 mg/kg i.p., prophylactic, modeling, 10th day after first injection of carboplatin): 142.6 ± 78.6 ×10^9/L
platelet count ([2]; high dose group B, 4 mg/kg i.p., prophylactic, modeling, 10th day after second injection of carboplatin): 150.5 ± 99.9 ×10^9/L
platelet count ([2]; high dose group B, 4 mg/kg i.p., prophylactic, modeling, 15th day after first injection of carboplatin): 649.8 ± 234.1 ×10^9/L
platelet count ([2]; high dose group B, 4 mg/kg i.p., prophylactic, modeling, before experiment): 619.7 ± 106.81 ×10^9/L
platelet count ([2]; high dose group, 4 mg/kg i.p., 5th day after first injection of carboplatin): 302.2 ± 62.2 ×10^9/L
platelet count ([2]; high dose group, 4 mg/kg i.p., 5th day after second injection of carboplatin): 758.9 ± 231.2 ×10^9/L
platelet count ([2]; high dose group, 4 mg/kg i.p., 10th day after first injection of carboplatin): 186.9 ± 81.0 ×10^9/L
platelet count ([2]; high dose group, 4 mg/kg i.p., 10th day after second injection of carboplatin): 133.8 ± 126.3 ×10^9/L
platelet count ([2]; high dose group, 4 mg/kg i.p., 15th day after first injection of carboplatin): 1038.3 ± 237.1 ×10^9/L
platelet count ([2]; high dose group, 4 mg/kg i.p., before experiment): 625.7 ± 127.04 ×10^9/L
increase of platelet count compared with the model group ([2]; high-dose group (4 mg/kg i.p.)): 27.1%
platelet count ([2]; low dose group, 0.25 mg/kg i.p., 5th day after first injection of carboplatin): 331.4 ± 76.3 ×10^9/L
platelet count ([2]; low dose group, 0.25 mg/kg i.p., 5th day after second injection of carboplatin): 712.8 ± 324.7 ×10^9/L
platelet count ([2]; low dose group, 0.25 mg/kg i.p., 10th day after first injection of carboplatin): 157.8 ± 49.3 ×10^9/L
platelet count ([2]; low dose group, 0.25 mg/kg i.p., 10th day after second injection of carboplatin): 133 ± 83.661 ×10^9/L
platelet count ([2]; low dose group, 0.25 mg/kg i.p., 15th day after first injection of carboplatin): 956.8 ± 266.5 ×10^9/L
platelet count ([2]; low dose group, 0.25 mg/kg i.p., before experiment): 611.5 ± 90.19 ×10^9/L
platelet count ([2]; middle dose group, 1 mg/kg i.p., 5th day after first injection of carboplatin): 359 ± 102.4 ×10^9/L
platelet count ([2]; middle dose group, 1 mg/kg i.p., 5th day after second injection of carboplatin): 620.2 ± 226.1 ×10^9/L
platelet count ([2]; middle dose group, 1 mg/kg i.p., 10th day after first injection of carboplatin): 197.7 ± 78.8 ×10^9/L
platelet count ([2]; middle dose group, 1 mg/kg i.p., 10th day after second injection of carboplatin): 70.386 ± 36.845 ×10^9/L
platelet count ([2]; middle dose group, 1 mg/kg i.p., 15th day after first injection of carboplatin): 1043.4 ± 288.1 ×10^9/L
platelet count ([2]; middle dose group, 1 mg/kg i.p., before experiment): 623 ± 98 ×10^9/L
increase of platelet count compared with the model group ([2]; middle-dose group (1 mg/kg i.p.)): 34.4%
Subcutaneous purpura, bleeding degree + [3, 6]: 6 number of mice
Subcutaneous purpura, bleeding degree ++ [3, 6]: 2 number of mice
Subcutaneous purpura, bleeding degree +++ [3, 6]: 0 number of mice
Subcutaneous purpura, bleeding degree − [3, 6]: 0 number of mice
Subcutaneous purpura, bleeding degree + [3, 7]: 4 number of mice
Subcutaneous purpura, bleeding degree ++ [3, 7]: 4 number of mice
Subcutaneous purpura, bleeding degree +++ [3, 7]: 0 number of mice
Subcutaneous purpura, bleeding degree − [3, 7]: 0 number of mice
Subcutaneous purpura, bleeding degree + [3, 8]: 5 number of mice
Subcutaneous purpura, bleeding degree ++ [3, 8]: 3 number of mice
Subcutaneous purpura, bleeding degree +++ [3, 8]: 0 number of mice
Subcutaneous purpura, bleeding degree − [3, 8]: 0 number of mice
body weight ([4]; high dose group (6 mg/kg per Table 8) intragastric, Day 0): 19.5 ± 1.5 g
body weight ([4]; high dose group (6 mg/kg per Table 8) intragastric, Day 7): 19.8 ± 1.4 g
body weight ([4]; high dose group (6 mg/kg per Table 8) intragastric, Day 14): 20.3 ± 1.8 g
body weight ([4]; low dose group (1.5 mg/kg per Table 8) intragastric, Day 0): 20.2 ± 2.0 g
body weight ([4]; low dose group (1.5 mg/kg per Table 8) intragastric, Day 7): 20.4 ± 1.5 g
body weight ([4]; low dose group (1.5 mg/kg per Table 8) intragastric, Day 14): 21.1 ± 1.6 g
body weight ([4]; middle dose group (3 mg/kg) intragastric, Day 0): 19.9 ± 1.9 g
body weight ([4]; middle dose group (3 mg/kg) intragastric, Day 7): 20.1 ± 1.7 g
body weight ([4]; middle dose group (3 mg/kg) intragastric, Day 14): 20.8 ± 1.7 g
thrombocyte aggregation rate [5]: increasing thrombocyte aggregation rate
